# Laboratory results from patent EP2147919A1, “Heterocyclic substituted amides, method for their manufacture and their use as herbicides” (Bayer CropScience Aktiengesellschaft, priority 2008, dated 2010).
# Assays:
# Schadpflanzen [1] = test: Herbicidal action post-emergence, summary over the weed spectrum; format: in vivo; conditions: Nachauflaufverfahren, Aufwandmenge von 1.28 kg und weniger Aktivsubstanz pro Hektar
# Source text: Samen von mono- bzw. dikotylen Unkraut- bzw. Kulturpflanzen werden in Holzfasertöpfen in sandigem Lehmboden ausgelegt, mit Erde abgedeckt und im Gewächshaus unter guten Wachstumsbedingungen angezogen. 2 bis 3 Wochen nach der Aussaat werden die Versuchspflanzen im Einblattstadium behandelt. Die in Form von benetzbaren Pulvern (WP) oder als Emulsionskonzentrate (EC) formulierten erfindungsgemäßen Verbindungen werden dann als wäßrige Suspension bzw. Emulsion mit einer Wasseraufwandmenge von umgerechnet 600 bis 800 l/ha unter Zusatz von 0,2% Netzmittel auf die grünen Pflanzenteile gesprüht. Nach ca. 3 Wochen Standzeit der Versuchspflanzen im Gewächshaus unter optimalen Wachstumsbedingungen wird die Wirkung der Präparate visuell im Vergleich zu unbehandelten Kontrollen bonitiert (herbizide Wirkung in Prozent (%): 100% Wirkung = Pflanzen sind abgestorben, 0 % Wirkung = wie Kontrollpflanzen).
# VERPE = test: Herbicidal action pre-emergence (greenhouse pot test, visual rating); format: in vivo, Veronica persica; conditions: Vorauflauf, 1280 g/ha, visual rating after 3 weeks vs untreated controls
# Source text: (§1) Samen von mono- bzw. dikotylen Unkraut- bzw. Kulturpflanzen werden in Holzfasertöpfen in sandiger Lehmerde ausgelegt und mit Erde abgedeckt. Die in Form von benetzbaren Pulvern (WP) oder als Emulsionskonzentrate (EC) formulierten erfindungsgemäßen Verbindungen werden dann als wäßrige Suspension bzw. Emulsion mit einer Wasseraufwandmenge von umgerechnet 600 bis 800 l/ha unter Zusatz von 0,2% Netzmittel auf die Oberfläche der Abdeckerde appliziert.
# (§2) Nach der Behandlung werden die Töpfe im Gewächshaus aufgestellt und unter guten Wachstumsbedingungen für die Testpflanzen gehalten. Die visuelle Bonitur der Schäden an den Versuchspflanzen erfolgt nach einer Versuchszeit von 3 Wochen im Vergleich zu unbehandelten Kontrollen (herbizide Wirkung in Prozent (%): 100% Wirkung = Pflanzen sind abgestorben, 0 % Wirkung = wie Kontrollpflanzen).
# STEME = test: as above; format: in vivo, Stellaria media; conditions: Vorauflauf, 1280 g/ha, visual rating after 3 weeks vs untreated controls
# Source text: as §1, §2
# MATIN = test: as above; format: in vivo, Matricaria inodora; conditions: Vorauflauf, 1280 g/ha, visual rating after 3 weeks vs untreated controls
# Source text: as §1, §2
# AMARE = test: as above; format: in vivo, Amaranthus retroflexus; conditions: Vorauflauf, 1280 g/ha, visual rating after 3 weeks vs untreated controls
# Source text: as §1, §2
# VIOTR = test: as above; format: in vivo, Viola tricolor; conditions: Vorauflauf, 1280 g/ha, visual rating after 3 weeks vs untreated controls
# Source text: as §1, §2
# AVEFA = test: as above; format: in vivo, Avena fatua; conditions: Vorauflauf, 1280 g/ha, visual rating after 3 weeks vs untreated controls
# Source text: as §1, §2
# ALOMY = test: as above; format: in vivo, Alopecurus myosuroides; conditions: Vorauflauf, 1280 g/ha, visual rating after 3 weeks vs untreated controls
# Source text: as §1, §2
# SETVI = test: as above; format: in vivo, Setaria viridis; conditions: Vorauflauf, 1280 g/ha, visual rating after 3 weeks vs untreated controls
# Source text: as §1, §2
# ECHCG = test: as above; format: in vivo, Echinochloa crus-galli; conditions: Vorauflauf, 1280 g/ha, visual rating after 3 weeks vs untreated controls
# Source text: as §1, §2
# LOLMU = test: as above; format: in vivo, Lolium multiflorum; conditions: Vorauflauf, 1280 g/ha, visual rating after 3 weeks vs untreated controls
# Source text: as §1, §2
# ABUTH = test: as above; format: in vivo, Abutilon theophrasti; conditions: Vorauflauf, 1280 g/ha, visual rating after 3 weeks vs untreated controls
# Source text: as §1, §2
# POLCO = test: as above; format: in vivo, Polygonum convolvolus; conditions: Vorauflauf, 1280 g/ha, visual rating after 3 weeks vs untreated controls
# Source text: as §1, §2
# Schadpflanzen [2] = test: Herbicidal action pre-emergence, summary over the weed spectrum; format: in vivo; conditions: Vorauflaufverfahren, Aufwandmenge von 1.28 kg und weniger Aktivsubstanz pro Hektar
# Source text: as §1, §2
SMILES,herbizide Wirkung gegen Schadpflanzen (Schadpflanzen [1]),herbizide Wirkung VERPE (VERPE) [%],herbizide Wirkung STEME (STEME) [%],herbizide Wirkung MATIN (MATIN) [%],herbizide Wirkung AMARE (AMARE) [%],herbizide Wirkung VIOTR (VIOTR) [%],herbizide Wirkung AVEFA (AVEFA) [%],herbizide Wirkung ALOMY (ALOMY) [%],herbizide Wirkung SETVI (SETVI) [%],herbizide Wirkung ECHCG (ECHCG) [%],herbizide Wirkung LOLMU (LOLMU) [%],herbizide Wirkung ABUTH (ABUTH) [%],herbizide Wirkung POLCO (POLCO) [%],herbizide Wirkung gegen Schadpflanzen (Schadpflanzen [2])
"CCCOc1cc(C)nc(Cl)c1C(=O)NC(c1ccon1)c1ccc(OC)cc1F (stereo not drawn) [Beispiel 2, 2-Chlor-N-[(2-fluor-4-methoxyphenyl)(isoxazol-3-yl)methyl]-6-methyl-4-n-propoxynicotinamid]",sehr gute herbizide Wirkung,,,,,,,,,,,,,
CCCOc1cc(C)nc(Br)c1C(=O)NC(c1ccc(F)c(F)c1)c1ccon1 (stereo not drawn) [Beispiel 161],,100,100,100,100,100,80,90,100,80,90,100,100,sehr gute herbizide Wirkung
CCCOc1cc(C)nc(Br)c1C(=O)NC(c1cccc(Cl)c1)c1ccon1 (stereo not drawn) [Beispiel 162],sehr gute herbizide Wirkung,100,100,100,100,100,,90,80,80,80,100,100,sehr gute herbizide Wirkung
